Test results taken from paper PMC10388299, “Design, Synthesis, and Biological Evaluation of 2-Hydroxy-4-phenylthiophene-3-carbonitrile as PD-L1 Antagonist and Its Comparison to Available Small Molecular PD-L1 Inhibitors” (Journal of Medicinal Chemistry, 2023).
“Also recorded” adds a separate entry of the source. Counter-ions that a name gives are not always drawn. Like-named read-outs stand apart in the source and are kept apart here. Each block holds one compound with its values, some of them ahead of it.

Legend:
[1] = biological target: T1, PD-L1 (Homo sapiens, UniProt Q9NZQ7); experiment: NMR binding assay (1H and 1H-15N HMQC); conditions: molar ratio 1:1
T1 construct: The PD-L1 protein (18–134) was expressed in the Escherichia coli BL21 (DE3); made in house; host or cells: Escherichia coli BL21 (DE3)
Text: To investigate if our synthesized analogs are capable of disrupting PD-1/PD-L1 binding, we performed our previously described nuclear magnetic resonance (NMR) assay.[16] […] The PD-L1 dimerization causes peaks of the ^1H aliphatic part PD-L1 spectrum to flatten (peak at −0.4 ppm) or disappear in the case of peaks from ^1H–^15N HMQC spectrum. Dimerization of PD-L1, in turn, prevents its binding to the PD-1.
For NMR measurements, the buffer was exchanged by gel filtration to PBS pH 7.4. 10% (v/v) of D2O was added to the samples to provide the lock signal. All spectra were recorded at 300 K using a Bruker Avance III 600 MHz spectrometer equipped with the nitrogen cryo-probe head.
Determination of binding of compounds to PD-L1 was carried out with the ^1H NMR. […] The molecular weight of each complex was estimated from relaxation time analysis, which can only be explained by the compound-induced PD-L1 dimerization. No significant changes were observed upon the addition of the PD-1 with the tested compounds.

[2] = biological target: T2, PD-1/PD-L1 complex (Homo sapiens, UniProt Q9NZQ7); experiment: HTRF PD-1/PD-L1 assay (Cisbio Human PD1/PD-L1 biochemical binding assay); conditions: disruption of the PD-1/PD-L1 complex; two independent dilution series
T2 construct: purchased Cisbio Bioassays
Procedure: Presence of inhibitors (small molecules, proteins, and so forth) that disrupt the binding decreases the resulting signal allowing the assessment of the inhibitory activity of tested inhibitors via IC50 (the half maximal inhibitory concentration).
The HTRF assay was performed using the certified Cis-Bio assay kit at 20 μL final volume using their standard protocol as described by Musielak et al.[34] Measurements were performed on individual dilution series to determine the half maximal inhibitory concentration (IC50) of tested compounds. After mixing all components according to the Cis-Bio protocol, the plate was incubated for 2 h at RT. […] For the compounds with IC50 values that were too high due to, e.g., solubility issues, a “dissociation value” at the concentration of 50 μM is presented for the sake of comparability to other inhibitors.

[3] = biological target: T1, PD-L1; experiment: Microscale thermophoresis (MST) affinity assay; type: binding
Procedure: The PD-L1 protein (18–134) was expressed in the Escherichia coli BL21 (DE3) and purified as described previously (Zak et al., 2016).[8] Protein expression was induced with 1 mM isopropyl β-D-1-thiogalactopyranosid (IPTG) at OD600 of 0.8 and the cells were cultured overnight at 37 °C. Afterward protein was refolded by drop-wise dilution into solution containing 0.1 M Tris pH 8.0, 1 M L-arginine hydrochloride, 0.25 mM oxidized glutathione, and 0.25 mM reduced glutathione. After refolding, protein was dialyzed 3 times against buffer containing 10 mM Tris pH 8.0 and 20 mM NaCl. Finally, PD-L1 was purified by SEC (size-exclusion chromatography) on HiLoad 26/600 Superdex 75 column (GE Healthcare) equilibrated with PBS pH 7.4.
PD-L1 was expressed as for NMR experiment. It was diluted to 10 μM and labelled with Protein Labeling Kit RED-NHS 2nd Generation from Nanotemper according to the manufacturer’s guidelines. The degree of labelling for PD-L1 was 0.74, which is with agreement with the protocol. Labelled PD-L1 at 100 nM concentration was then mixed with independent series of 4a and 9a compound dilution series (n = 4) and incubated for 30 min at RT. Next, samples were transferred to dedicated 384-well plate and measured on Diantus equipped with pico detector using auto-excitation and 5 s pulse (Nanotemper) for the affinity measurements. The results were exported, averaged, and fitted in Mathematica 12 using following equations: [drawing 1] where: FB—fraction bound, [A]—concentration of unlabeled titrated partner, [B]—concentration of fluorescent labeled partner that is fixed, [AB]—concentration of bound complex of A and B, Kd—equilibrium dissociation constant.

[4] = biological target: T3, PD-1/PD-L1 (Homo sapiens, UniProt Q9NZQ7); experiment: Promega PD-1/PD-L1 immune checkpoint blockade assay (Jurkat reporter T cells + aAPCs); type: cell-based; conditions: Jurkat reporter T cells cocultured with aAPCs; an estimation because of cytotoxicity at higher concentrations
T3 construct: host or cells: CHO-K1 aAPCs (PD-L1) and Jurkat effector cells (PD-1)
Procedure: Additionally, aAPCs and ECs were propagated in a constant presence of hygromycin B (50 μg/mL) and G418 (250 μg/mL) to provide a stable expression of the introduced genetic constructs.
The aAPCs were seeded in white flat bottom 96-well plates at the density of 10 000 cells/well in the culture medium 24 h before the assay and grown overnight in a 5% CO2 37 °C incubator. On the day of the experiment, serial dilutions of tested compounds were prepared first in DMSO and then formulated in RPMI 1640-containing 1% FBS to keep the constant DMSO concentration of 0.1% (v/v). As a negative control, DMSO was used in assay buffer at the concentration of 0.1% (v/v). As a positive control, a serial dilution of durvalumab (an anti-PD-L1 antibody) in assay buffer was used. Meanwhile, the medium of the aAPCs cells was removed, and the compounds’ dilutions were added to the plate (40 μL/well). […] The cell suspension was distributed over the inner 60 wells of the assay plate (20 000 cells/well, 40 μL). The plates were incubated for 6 h in a 5% CO2 incubator at 37 °C. Once the assay time was over, the plate was taken out of the incubator to equilibrate to room temperature. Before measurements, a 75 μL per well of Bio-Glo luciferase substrate was added to the inner 60 wells of the plate. […] The measurement was done on a Spark microplate reader (Tecan), using the standard settings for luminescence reading.

[5] = Experimental lipophilicity of 18F tracers; type: physicochemical; conditions: for logP / lipophilicity (in words): 18F tracer; for logP / logD: triplicate; for logP: read-out: experimental log P; for logD: pH 7.4, 18F tracer, read-out: experimental log D7.4
[6] = In vitro stability in formulation solution; type: physicochemical; conditions: for stability in formulation solution (4h): supplementary csv, unit not given; for stability in formulation solution after 4 h: radiochemical purity by TLC, triplicate
Procedure: (§1) In vitro stability of [^18F]4a and [^18F]9a was evaluated in Tween-80 or PBS (original diluent) and serum. After purification, samples of tracers were mixed with equal volumes of the formulated tracer and solution in which stability was evaluated (100 μL tracer solution with 100 μL Tween-80/PBS) and measured every 30 min for a 4 h period. The radiochemical purity (RCP) of labeled products was measured using thin-layer chromatography (TLC) (silica TLC plates on aluminum, MerckMilipore, USA). The TLCs were developed with appropriate MeOH/DCM eluent system; 10% MeOH/DCM + NH3 for [^18F]4a and 10% MeOH/DCM for [^18F]9a. The distribution of the radioactivity among the TLC plate was measured on GE Amersham Typhoon Scanner using phosphorus plates and ImageQuant TL 1D software for data processing (both GE Healthcare Life Science, USA). The experiment was performed in triplicate.

[7] = In vitro stability in human serum; type: in vitro ADME; conditions: for stability in serum (4h): supplementary csv, unit not given; for stability in serum after 4 h: radiochemical purity by TLC, triplicate
Procedure: as §1

[8] = biological target: T1, PD-L1; set-up: method as in PMID 17985865; conditions: by means of NMR, HTRF, and cellular assays; cited from earlier work
[9] = test system: murine PD-L1; set-up: method as in PMID 17985865; conditions: by means of NMR, HTRF, and cellular assays; cited from earlier work
[10] = test system: H358 (lung adenocarcinoma) PD-L1^+/– tumor tissue sections; experiment: Autoradiography with H358 PD-L1+/- tumor tissue sections; type: binding, human; conditions: PD-L1+ vs counterpart H358 tumor sections
Procedure: (§2) Formalin-fixed paraffin-embedded xenograft tumors (ES2 PD-L1^+/– and H358 PD-L1^+/–) were cut into 4 μm slices and placed on the glass slides. Before each immunohistochemistry and autoradiography experiment, tissue slides were deparaffinized by oven incubation (min 1 h at 60 °C) and xylene washes, then rehydrated through graded alcohol and distilled water. Additionally, heat-induced antigen retrieval with 10 mM citrate buffer pH = 6.0 was performed (15 min 400 W). Snap-frozen human tonsil tissue was a gift from the Pathology Department (UMCG). Before each experiment, they were incubated in cold acetone for 10 min.
(§3) For autoradiography, antigen retrieval and acetone wash were followed by 30 min of incubation with a freshly formulated tracer at a concentration of 0.2 MBq/mL. After washing twice with cold PBS and once with water, slides were left to dry and exposed to phosphorus plates. The image was recorded on GE Amersham Typhoon Biomolecular Imager and analyzed with ImageQuant TL 1D software (both GE Healthcare Life Science, USA).

[11] = test system: ES2 (ovarian carcinoma) PD-L1^+/– tumor tissue sections; experiment: Autoradiography with ES2 PD-L1+/- tumor tissue sections; type: binding, human
Procedure: as §2, §3

[12] = biological target: PD-L1; conditions: PD-L1 nanobody, ca. 15 kDa; cited from earlier work
[13] = MST, labelled PD-L1 100 nM, n = 4, read-out: kD to hPD-L1
[14] = supplementary csv, unit inferred, read-out: MST Kd

T1 sequence (Q9NZQ7 18-134): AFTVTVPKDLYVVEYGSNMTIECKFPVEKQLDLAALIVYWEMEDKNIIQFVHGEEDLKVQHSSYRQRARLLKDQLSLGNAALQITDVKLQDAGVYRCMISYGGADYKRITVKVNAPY
T3 sequence (Q9NZQ7 19-290): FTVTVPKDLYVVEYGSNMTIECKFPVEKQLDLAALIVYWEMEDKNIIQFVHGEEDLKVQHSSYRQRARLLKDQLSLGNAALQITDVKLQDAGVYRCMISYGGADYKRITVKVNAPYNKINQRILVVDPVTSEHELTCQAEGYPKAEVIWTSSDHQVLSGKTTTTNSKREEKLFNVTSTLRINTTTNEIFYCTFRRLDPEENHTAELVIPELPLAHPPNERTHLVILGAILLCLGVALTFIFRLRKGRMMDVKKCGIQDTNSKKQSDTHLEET
T2 sequence (Q9NZQ7 19-238 limits assumed, one chain of several): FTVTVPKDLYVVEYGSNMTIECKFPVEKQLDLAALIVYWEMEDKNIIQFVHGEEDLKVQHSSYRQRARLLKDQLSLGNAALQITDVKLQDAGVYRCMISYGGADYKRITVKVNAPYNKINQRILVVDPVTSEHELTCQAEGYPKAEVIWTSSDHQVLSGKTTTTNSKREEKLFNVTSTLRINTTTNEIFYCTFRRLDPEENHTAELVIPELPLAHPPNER

effect on PD-L1 in 1H NMR and 1H-15N HMQC spectra [1]: induces dimerization of PD-L1
Compound: Cc1c(COc2cc(OCc3cccc(C#N)c3)c(CN3CC(O)C[C@@H]3C(=O)O)cc2Cl)cccc1-c1ccc2c(c1)OCCO2 (stereo in doubt) [9b, (2R,4S)-1-(5-Chloro-2-((3-cyanobenzyl)oxy)-4-((3-(2,3-dihydrobenzo[b][1,4]dioxin-6-yl)-2-methylbenzyl)oxy)benzyl)-4-hydroxypyrrolidine-2-carboxylic Acid, reference compound]

IC50 [2]: 4.97 nM
Kd [3, 13]: ~27 nM
Kd [3, 14]: 26.9 nM
effect on PD-L1 in 1H NMR and 1H-15N HMQC spectra [1]: induces dimerization of PD-L1
logP [5]: 3.6
logD [5]: 3.9
stability in formulation solution (4h) [6]: 97.5
stability in serum (4h) [7]: 93.9
Compound: N#Cc1c(-c2ccc(F)cc2)csc1OCc1ccc(CN)cc1 [4a, 2-((4-(Aminomethyl)benzyl)oxy)-4-(4-fluorophenyl)thiophene-3-carbonitrile Hydrochloride]
EC50 [4]: 2700 nM

IC50 [2]: 2.01 nM
Kd [3, 13]: ~8 nM
Kd [3, 14]: 8.36 nM
logP [5]: 5.2
logD [5]: 6.5
stability in formulation solution (4h) [6]: 97.3
stability in serum (4h) [7]: 88.7
Compound: Cc1c(COc2cc(OCc3cccc(C#N)c3)c(CN3C[C@@H](F)C[C@@H]3C(=O)O)cc2Cl)cccc1-c1ccc2c(c1)OCCO2 [9a, (2R,4S)-1-(5-Chloro-2-((3-cyanobenzyl)oxy)-4-((3-(2,3-dihydrobenzo[b][1,4]dioxin-6-yl)-2-methylbenzyl)oxy)benzyl)-4-fluoropyrrolidine-2-carboxylic Acid]
EC50 [4]: 880 nM

Compound: C[C@@H](O)[C@H](NC(=O)N[C@@H](CC(N)=O)c1nc([C@@H](N)CO)no1)C(=O)O [CA-170]
direct binding to human PD-L1 [8]: not a direct binder
direct binding to murine PD-L1 [9]: not a direct binder

lipophilicity (in words) [5]: moderate lipophilicity
logP [5]: 3.6 ± 0.4
logD [5]: 3.9 ± 0.9
stability in formulation solution after 4 h [6]: 97.5 ± 0.5%
stability in serum after 4 h [7]: 93.9 ± 0.5%
stability in human serum, minimal value [7]: 93%
Compound: N#Cc1c(-c2ccc([18F])cc2)csc1OCc1ccc(CN)cc1 [[^18F]4a]
higher uptake in PD-L1+ H358 tumors [10]: 40–55%
background uptake ([11]; compared with [^18F]9a): lower background uptake than [^18F]9a
discrimination between wild-type and knock-out ES2 slides ([11]; paraffin-embedded sections): failed to discriminate between wild-type and knock-out; also recorded: unable to bind specifically

lipophilicity (in words) [5]: high lipophilicity
logP [5]: 5.2 ± 0.6
logD [5]: 6.5 ± 0.2
stability in formulation solution after 4 h [6]: 97.3 ± 1.1%
stability in serum after 4 h [7]: 88.7 ± 5.7%
stability in human serum, minimal value [7]: 82%
Compound: Cc1c(COc2cc(OCc3cccc(C#N)c3)c(CN3C[C@@H]([18F])C[C@@H]3C(=O)O)cc2Cl)cccc1-c1ccc2c(c1)OCCO2 [[^18F]9a]
higher uptake in PD-L1+ H358 tumors [10]: 40–55%

Compound: KN035: PD-L1 nanobody, ca. 15 kDa
pKd [12]: 8.5
